In ChEMBL document CHEMBL3739321, “Multicomponent reaction-based synthesis and biological evaluation of tricyclic heterofused quinolines with multi-trypanosomatid activity” (Eur J Med Chem, 2015):

What was measured:
Leishmania infantum [1] = experiment: Potency index, ratio of potassium antimony (III) tartarate hydrate IC50 to compound IC50 for promastigote stage of Leishmania infantum MCAN/ES/92/BCN722; assay type: functional
Trypanosoma brucei = experiment: Potency index, ratio of nifurtimox IC50 to compound IC50 for bloodstream form of Trypanosoma brucei 221; assay type: functional
Trypanosoma cruzi = experiment: Potency index, ratio of benzanidazole IC50 to compound IC50 for epimastigote stage of Trypanosoma cruzi MHOM/ES/2203/BCN590; assay type: functional
Leishmania infantum [2] = experiment: Leishmanicidal activity against promastigote stage of Leishmania infantum MCAN/ES/92/BCN722 after 48 hrs by acid phosphatase based assay; assay type: functional, organism-based
[3] = Selectivity index, ratio of IC50 for rat L6 cells to IC50 for promastigote stage of Leishmania infantum MCAN/ES/92/BCN722; assay type: toxicity, cell-based
L6 = experiment: Cytotoxicity against rat L6 cells after 6 days by resazurin staining based fluorescence plate reader assay; assay type: cell-based

Compound	Ratio IC50 (Leishmania infantum [1])	Ratio IC50 (Trypanosoma brucei)	also measured
N#Cc1ccc(-c2nc3ccc(Cl)cc3c3c2CCN3)cc1	<=5	–	–
OCCCc1cc2cc(Cl)ccc2nc1-c1cccs1	<=5	–	–
NCc1ccc2nc(-c3ccc(Cl)cc3)c3c(c2c1)N(Cc1ccccc1)CCC3	<=5	2	–
Clc1ccc2nc(-c3cccs3)c(CCCN3CCCC3)cc2c1	<=5	–	–
N#Cc1ccc(-c2nc3ccc(Cl)cc3c3c2CCCCN3)cc1	<=5	–	–
NCc1ccc(-c2nc3ccc(Cl)cc3c3c2CCCO3)cc1	<=5	2	–
N#Cc1ccc([C@H]2Nc3ccc(Cl)cc3[C@@H]3OCCC[C@H]23)cc1	<=5	–	–
Clc1ccc2nc(-c3cccs3)c3c(c2c1)OCCC3	<=5	–	–
NCc1ccc(-c2nc3ccc(Cl)cc3c3c2CCCCN3)cc1	<=5	2	–
CCN(CC)CCCc1cc2cc(Cl)ccc2nc1-c1cccs1	<=5	–	–
NCc1ccc(-c2nc3ccc(Cl)cc3c3c2CCN3)cc1	<=5	2	–
N#Cc1ccc(-c2nc3ccc(Cl)cc3c3c2CCCN3)cc1	<=5	–	–
N#Cc1ccc(-c2nc3cc(Cl)ccc3cc2CCCN)cc1	<=5	–	–
Clc1ccc2nc(-c3ccco3)c3c(c2c1)OCCC3	<=5	–	–
N#Cc1ccc(-c2nc3ccc(Cl)cc3c3c2CCCO3)cc1	<=5	–	–
NCc1ccc(-c2nc3cc(Cl)ccc3c3c2CCCN3)cc1	<=5	2	–
N#CCCc1cc2cc(Cl)ccc2nc1-c1cccs1	<=5	–	–
NCc1ccc(-c2nc3ccc(Cl)cc3c3c2CCCN3Cc2ccccc2)cc1	<=5	2	Ratio IC50 (Trypanosoma cruzi): 4
N#Cc1ccc(-c2nc3cc(Cl)ccc3c3c2CCCN3)cc1	<=5	–	–
OCCCc1cc2cc(Cl)ccc2nc1-c1ccco1	<=5	–	–
NCc1ccc(-c2nc3ccc(Cl)cc3c3c2CCCN3)cc1	<=5	2	–
POTASSIUM ANTIMONYL TARTRATE TRIHYDRATE	–	–	IC50 (Leishmania infantum [2]): 24.3 µM; Ratio IC50 [3]: 0.1; IC50 (L6): 3.27 µM
